Several values for one entry are separate records, joined by “and”; a condition that tells them apart may be missing. Equal entries are not always repeated. Inconclusive results and toxic doses are left out. How the source made its calls: active means survival T/C of 150% or more; inactive means T/C below 125% in these data.
Test system: CD2F1 mice, L1210 leukemia ip, survival T/C
Experiment: NCI In Vivo Anticancer Drug Screen. Data for tumor model L1210 Leukemia (intraperitoneal) in CD2F1 (CDF1) mice
Details: higher = longer survival
Summary of the method: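 Activity against a transplanted murine tumor was judged by comparing the compound group with a vehicle group. The outcome in the treated animals was divided by that in the controls.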

[1] = endpoint: mean survival time, dose: 25.0 mg/kg/injection, schedule: Q01DX009 (ip), vehicle: saline with Tween-80
[2] = endpoint: mean survival time, dose: 50.0 mg/kg/injection, schedule: Q01DX009 (ip), vehicle: saline
[3] = endpoint: mean survival time, dose: 100.0 mg/kg/injection, schedule: Q01DX009 (ip), vehicle: saline with Tween-80
[4] = endpoint: mean survival time, dose: 200.0 mg/kg/injection, schedule: Q01DX009 (ip), vehicle: saline with Tween-80
[5] = endpoint: mean survival time, dose: 400.0 mg/kg/injection, schedule: Q01DX009 (ip), vehicle: saline with Tween-80
[6] = endpoint: mean survival time, dose: 100.0 mg/kg/injection, schedule: Q04DX003 (ip), vehicle: saline with Tween-80
[7] = endpoint: mean survival time, dose: 200.0 mg/kg/injection, schedule: Q04DX003 (ip), vehicle: saline with Tween-80
[8] = endpoint: mean survival time, dose: 400.0 mg/kg/injection, schedule: Q04DX003 (ip), vehicle: saline with Tween-80
[9] = endpoint: mean survival time, dose: 12.5 mg/kg/injection, schedule: Q01DX009 (ip), vehicle: saline with Tween-80
[10] = endpoint: mean survival time, dose: 50.0 mg/kg/injection, schedule: Q01DX009 (ip), vehicle: saline with Tween-80
[11] = endpoint: mean survival time, dose: 6.25 mg/kg/injection, schedule: Q01DX009 (ip), vehicle: saline with Tween-80
[12] = endpoint: mean survival time, dose: 100.0 mg/kg/injection, schedule: Q01DX001 (ip), vehicle: saline
[13] = endpoint: mean survival time, dose: 200.0 mg/kg/injection, schedule: Q01DX001 (ip), vehicle: saline
[14] = endpoint: mean survival time, dose: 400.0 mg/kg/injection, schedule: Q01DX001 (ip), vehicle: saline

Measured: T/C

NC(N)=N/N=C/c1ccc(-c2ccccc2)cc1
inactive: endpoint: mean survival time, dose: 6.25 mg/kg/injection, schedule: Q01DX001 (ip), vehicle: saline with Tween-80 95 % of control | endpoint: mean survival time, dose: 12.5 mg/kg/injection, schedule: Q01DX001 (ip), vehicle: saline with Tween-80 109 % of control | endpoint: mean survival time, dose: 25.0 mg/kg/injection, schedule: Q01DX001 (ip), vehicle: saline with Tween-80 100 % of control

COc1cc2cc[n+]3c(C)c4cc5c(cc4cc3c2cc1OC)OCO5 (tested in a mixture with another compound)
inactive: [1] 120 % of control | endpoint: mean survival time, dose: 37.5 mg/kg/injection, schedule: Q01DX009 (ip), vehicle: saline with Tween-80 94 % of control | endpoint: mean survival time, dose: 37.5 mg/kg/injection, schedule: Q01DX009 (ip), vehicle: saline 108 % of control | [2] 106 % of control | endpoint: mean survival time, dose: 100.0 mg/kg/injection, schedule: Q04DX003 (ip), vehicle: saline 121 % of control | endpoint: mean survival time, dose: 200.0 mg/kg/injection, schedule: Q04DX003 (ip), vehicle: saline 93 % of control

CC(=O)Nc1cccc(C(C)=O)c1[N+](=O)[O-]
inactive: [3] 102 % of control | [4] 97 % of control | [5] 93 % of control

CC(=O)/C(=C\c1ccc(Cl)c(Cl)c1)C(=O)CCN(C)C
inactive: endpoint: median survival time, dose: 12.5 mg/kg/injection, schedule: Q01DX009 (ip), vehicle: saline 113 % of control and 98 % of control | endpoint: median survival time, dose: 25.0 mg/kg/injection, schedule: Q01DX009 (ip), vehicle: saline 95 % of control and 104 % of control and 109 % of control | endpoint: median survival time, dose: 50.0 mg/kg/injection, schedule: Q01DX009 (ip), vehicle: saline 113 % of control and 115 % of control and 110 % of control | endpoint: median survival time, dose: 100.0 mg/kg/injection, schedule: Q01DX009 (ip), vehicle: saline 97 % of control and 105 % of control

C/C(=N\NC(=O)c1ccccc1)c1ccccc1
inactive: [3] 98 % of control | [4] 106 % of control | [5] 102 % of control

CC(CC(C)(C)C)O[Si](C)C1(C)CCCCC1 (stereo unspecified)
inactive: [6] 102 % of control | [7] 112 % of control | [8] 106 % of control

CN(Cc1ccccc1)Cc1ccccc1
inactive: endpoint: mean survival time, dose: 100.0 mg/kg/injection, schedule: Q04DX002 (ip), vehicle: saline 100 % of control | endpoint: mean survival time, dose: 200.0 mg/kg/injection, schedule: Q04DX002 (ip), vehicle: saline 94 % of control

Clc1cc(Cl)cc(-c2cc(Cl)cc(Cl)c2)c1
inactive: endpoint: mean survival time, dose: 100.0 mg/kg/injection, schedule: Q01DX001 (ip), vehicle: carboxymethylcellulose (CMC) 101 % of control | endpoint: mean survival time, dose: 200.0 mg/kg/injection, schedule: Q01DX001 (ip), vehicle: carboxymethylcellulose (CMC) 92 % of control | endpoint: mean survival time, dose: 400.0 mg/kg/injection, schedule: Q01DX001 (ip), vehicle: carboxymethylcellulose (CMC) 95 % of control

CC(Cc1ccc(O)cc1)NCC(O)c1ccc(O)c(O)c1 (stereo unspecified)
inactive: [9] 102 % of control and 104 % of control | [1] 103 % of control and 104 % of control | [10] 105 % of control and 111 % of control | [3] 108 % of control and 111 % of control | [4] 103 % of control and 111 % of control | [5] 113 % of control and 112 % of control

N/N=C(\C(=N\N)c1ccccc1)c1ccccc1
inactive: [6] 95 % of control | [7] 93 % of control | [8] 89 % of control

O=C(O)/C=C/C(=O)NCc1ccco1
inactive: [6] 94 % of control | [7] 94 % of control | [8] 94 % of control

CC1CCCC(C)N1CC(O)c1ccccc1 (stereo unspecified)
inactive: [11] 98 % of control | [9] 100 % of control | [1] 102 % of control

CCOC(=O)Nc1cc(F)c(F)cc1F
inactive: [3] 98 % of control | [4] 98 % of control

Cc1cc(O)c(C(C)C)cc1N=O
inactive: endpoint: mean survival time, dose: 100.0 mg/kg/injection, schedule: Q01DX001 (ip), vehicle: saline with Tween-80 96 % of control | [3] 94 % of control | [6] 103 % of control | endpoint: mean survival time, dose: 200.0 mg/kg/injection, schedule: Q01DX001 (ip), vehicle: saline with Tween-80 94 % of control | [4] 88 % of control | [7] 100 % of control | endpoint: mean survival time, dose: 400.0 mg/kg/injection, schedule: Q01DX001 (ip), vehicle: saline with Tween-80 89 % of control | [5] 87 % of control | [8] 106 % of control

Nc1nc(N)nc(-c2ccccc2)n1
inactive: [6] 96 % of control | [7] 98 % of control | [8] 105 % of control

C=CCNC(=O)OCC
inactive: [3] 100 % of control | [4] 98 % of control

CC(=O)NCCCCCCNC(C)=O
inactive: endpoint: mean survival time, dose: 25.0 mg/kg/injection, schedule: Q01DX009 (ip), vehicle: saline 96 % of control | [2] 100 % of control | endpoint: mean survival time, dose: 100.0 mg/kg/injection, schedule: Q01DX009 (ip), vehicle: saline 100 % of control | endpoint: mean survival time, dose: 200.0 mg/kg/injection, schedule: Q01DX009 (ip), vehicle: saline 94 % of control | endpoint: mean survival time, dose: 400.0 mg/kg/injection, schedule: Q01DX009 (ip), vehicle: saline 100 % of control | endpoint: mean survival time, dose: 800.0 mg/kg/injection, schedule: Q01DX009 (ip), vehicle: saline 93 % of control

CC(C)c1ccccc1OS(=O)(=O)c1cccc([N+](=O)[O-])c1
inactive: [3] 98 % of control | [6] 100 % of control | [4] 100 % of control | [7] 99 % of control | [5] 100 % of control | [8] 106 % of control

CCCCCCCCCCCC(=O)[O][Pb]([CH2]C)([CH2]C)[CH2]C
inactive: endpoint: mean survival time, dose: 3.13 mg/kg/injection, schedule: Q01DX009 (ip), vehicle: saline with Tween-80 87 % of control | [11] 104 % of control

O=c1[nH]cc[nH]1
inactive: endpoint: mean survival time, dose: 267.0 mg/kg/injection, schedule: Q01DX009 (ip), vehicle: saline 111 % of control

O=C(CCc1ccc(O)cc1)c1c(O)cc(O)cc1OC1OC(CO)C(O)C(O)C1O (stereo unspecified)
inactive: [12] 102 % of control | [13] 98 % of control | [14] 104 % of control

CC(=O)C(C(C)=O)C(=[C-]C(F)(F)F)C(F)(F)F.CC(=O)C(C(C)=O)C(=[C-]C(F)(F)F)C(F)(F)F.[Pd+2]
inactive: endpoint: mean survival time, dose: 3.13 mg/kg/injection, schedule: Q04DX003 (ip), vehicle: distilled water + Tween-80 102 % of control | endpoint: mean survival time, dose: 6.25 mg/kg/injection, schedule: Q04DX003 (ip), vehicle: distilled water + Tween-80 96 % of control | endpoint: mean survival time, dose: 12.5 mg/kg/injection, schedule: Q04DX003 (ip), vehicle: distilled water + Tween-80 102 % of control

CCCCCCCCCCCCCCn1cnc2ncnc(Cl)c21
inactive: endpoint: mean survival time, dose: 6.25 mg/kg/injection, schedule: Q01DX005 (ip), vehicle: distilled water + Tween-80 100 % of control | endpoint: mean survival time, dose: 12.5 mg/kg/injection, schedule: Q01DX005 (ip), vehicle: distilled water + Tween-80 100 % of control | endpoint: mean survival time, dose: 25.0 mg/kg/injection, schedule: Q01DX005 (ip), vehicle: distilled water + Tween-80 93 % of control | endpoint: mean survival time, dose: 50.0 mg/kg/injection, schedule: Q01DX005 (ip), vehicle: distilled water + Tween-80 90 % of control | endpoint: mean survival time, dose: 100.0 mg/kg/injection, schedule: Q01DX005 (ip), vehicle: distilled water + Tween-80 91 % of control

O=C(O)c1nnc(C(=O)O)nn1
inactive: endpoint: mean survival time, dose: 12.5 mg/kg/injection, schedule: Q01DX009 (ip), vehicle: water 100 % of control | endpoint: mean survival time, dose: 25.0 mg/kg/injection, schedule: Q01DX009 (ip), vehicle: water 100 % of control | endpoint: mean survival time, dose: 50.0 mg/kg/injection, schedule: Q01DX009 (ip), vehicle: water 95 % of control | endpoint: mean survival time, dose: 100.0 mg/kg/injection, schedule: Q01DX009 (ip), vehicle: water 94 % of control

O=[N+]([O-])O.[Cr+3].[NH2-].[NH2-].[NH2-].[NH2-].[NH2-].[NH2-]
inactive: endpoint: mean survival time, dose: 6.25 mg/kg/injection, schedule: Q01DX009 (ip), vehicle: saline sonified 88 % of control | endpoint: mean survival time, dose: 12.5 mg/kg/injection, schedule: Q01DX009 (ip), vehicle: saline sonified 97 % of control | endpoint: mean survival time, dose: 25.0 mg/kg/injection, schedule: Q01DX009 (ip), vehicle: saline sonified 90 % of control

CC1(C)N=C(N)N=C(N)N1c1ccc(OCCOc2ccc(NC(=O)CBr)cc2)cc1
inactive: endpoint: mean survival time, dose: 176.0 mg/kg/injection, schedule: Q01DX006 (ip), vehicle: other 118 % of control | endpoint: mean survival time, dose: 266.0 mg/kg/injection, schedule: Q01DX006 (ip), vehicle: other 124 % of control | endpoint: mean survival time, dose: 600.0 mg/kg/injection, schedule: Q01DX006 (ip), vehicle: other 94 % of control

CCCCCCCCCCCCCCC/C([O-])=N/[N+](C)(C)CC(C)O (stereo unspecified)
inactive: endpoint: mean survival time, dose: 25.0 mg/kg/injection, schedule: Q01DX001 (ip), vehicle: saline 95 % of control and 100 % of control | endpoint: mean survival time, dose: 50.0 mg/kg/injection, schedule: Q01DX001 (ip), vehicle: saline 100 % of control | [10] 89 % of control | [12] 89 % of control and 97 % of control | [3] 91 % of control | [13] 97 % of control | [14] 100 % of control

O=CNc1cc2ccccc2c2ccc3ccccc3c12
inactive: [10] 94 % of control | [3] 94 % of control | [6] 89 % of control | [4] 97 % of control | [7] 89 % of control

— PubChem BioAssay AID256 (DTP/NCI, 2004)
